Assay results from patent US5770595A, “Oxime substituted therapeutic compounds” (Cell Therapeutics, Inc., priority 1994, dated 1998).

Tests used:
L929 cells = experiment: TNF-α-mediated cytotoxicity in L929 cells; assay type: cell-based, murine; details: human TNF-α 300 pg/ml; FIG. 9
Protocol: An inventive compound can be assayed for activity protecting TNF-mediated cytotoxicity. In this assay, L929 murine fibroblast cells (10^4 cells per well) are incubated with either compounds at varying doses and media control for two hrs. […] The cells plus (or minus) drug plus TNF were incubated for 40 hrs at 37° C. The media is removed and replaced with fresh media containing 2% serum and 10 μg/ml of BCECF fluorescent dye and incubated for 30 min. The fluorescent dye-containing media is removed and replaced with PBS (phosphate buffered saline) and each well was assayed for fluorescence.
This assay is a model for septic shock. L929 cells (10^5) were treated with human TNF-α at 300 pg/ml in RPMI media containing 10% fetal calf serum with or without compound no. One day later, the cells were stained for viability using the fluorescent dye BCECF and fluorescence of the samples was analyzed using a Milipore plate reader.

[1] = test system: murine peritoneal macrophages; experiment: IL-1α release from LPS-stimulated murine peritoneal macrophages; assay type: cell-based; details: 0.25 mM, LPS 10 μg/ml
Protocol: (§1) This example illustrates the ability of inventive compound no. 1521 to inhibit IL-1α release from murine peritoneal macrophages when stimulated with LPS. This assay is a model for septic shock. Macrophages (10^5) were treated with LPS at 10 μg/ml in RPMI media containing 10% fetal calf serum. Supernatants were assayed for IL-1α by an ELISA technique at various times following LPS stimulation. The cells were treated one hour prior to LPS stimulation with 0.25 mM 1521.

P388D1 cells = experiment: IL-1α release from LPS-stimulated P388D1 cells; assay type: cell-based, murine; details: 0.25 mM, LPS 10 μg/ml
Protocol: as §1, with “P388D1 cells” for “murine peritoneal macrophages”, “P388D1 cells” for “Macrophages”, “mM of compound no.” for “mM”

murine thymocyte = experiment: thymocyte proliferation stimulated by ConA and IL-2; assay type: cell-based, murine (female Balb/C mice); details: IL-2 20 ng/ml; drug two hours prior; FIG. 4
Protocol: A thymocyte costimulator assay is conducted to evaluate the inventive compounds to inhibit activation and proliferation of thymocytes caused by stimulation with Con A and interleukin-1 (IL-1), or […]. Thymuses are obtained from mice (e.g., female Balb/C mice) and the thymuses are removed and dissociated into culture media (e.g., RPMI 1640 without serum supplementation). The dissociated thymus tissue and cell suspension is transferred to centrifuge tubes and allowed to settle, washed with HBSS and resuspended in serum-supplemented culture media (e.g., RPMI 1640 with 10% fetal calf serum). Any contaminating red cells are lysed, and viable cells are resuspended and counted. Thymocytes are plated (e.g., 96-well plates at a density of 2×10^5 cells/well) and a stimulating agent, such as Con A, IL-1 (e.g., IL-1α) or IL-2 is added to the well. The cells are incubated for 4 days at 37° C. On the fourth day, the cells are pulsed with tritiated thymidine and cell proliferation determined. […]
1522 on inhibition of thymocyte proliferation stimulated by ConA and interleukin-2 (IL-2) (20 ng/ml). Compound no. […]
Thymuses, obtained from normal, female Balb/C mice, were dissociated and plated into 96-well plates at a density of 2×10^5 cells/well. […] The amount of tritiated thymidine dye incorporated by the harvested cells was determined in a liquid scintillation counter. […]

CC(CCCCn1c(=O)c2c(ncn2C)n(C)c1=O)=NO [Compound no. 1521]
protection of L929 cells from TNF-induced cytotoxicity (L929 cells): inhibited TNF-induced cytotoxicity in a dose dependent manner | inhibition of IL-1α release [1]: inhibited IL-1α release | inhibition of IL-1α release (P388D1 cells): inhibited IL-1α release

CON=C(C)CCCCn1c(=O)c2c(ncn2C)n(C)c1=O [Compound no. 1522]
inhibition of thymocyte proliferation, ConA + IL-2 (murine thymocyte): inhibited thymocyte proliferation at the higher doses tested
